From publication PMC6857051, “Proliferative regulation of alveolar epithelial type 2 progenitor cells by human Scnn1d gene” (Theranostics, 2019)

What was measured:
δ802αβγ-ENaC = biological target: T1, δ802αβγ-ENaC (Homo sapiens, UniProt P51168+P51170); experiment: Two-electrode voltage clamp of δ802αβγ-ENaC expressed in Xenopus oocytes; type: cell-based
T1 construct: We characterized full-length human δ802-ENaC expressed in both Xenopus oocytes and humanized transgenic mice; expressed in transfected cells; host or cells: Xenopus laevis oocytes injected with cRNA (pGEM HE vector)
T1 sequence (P51168 1-640): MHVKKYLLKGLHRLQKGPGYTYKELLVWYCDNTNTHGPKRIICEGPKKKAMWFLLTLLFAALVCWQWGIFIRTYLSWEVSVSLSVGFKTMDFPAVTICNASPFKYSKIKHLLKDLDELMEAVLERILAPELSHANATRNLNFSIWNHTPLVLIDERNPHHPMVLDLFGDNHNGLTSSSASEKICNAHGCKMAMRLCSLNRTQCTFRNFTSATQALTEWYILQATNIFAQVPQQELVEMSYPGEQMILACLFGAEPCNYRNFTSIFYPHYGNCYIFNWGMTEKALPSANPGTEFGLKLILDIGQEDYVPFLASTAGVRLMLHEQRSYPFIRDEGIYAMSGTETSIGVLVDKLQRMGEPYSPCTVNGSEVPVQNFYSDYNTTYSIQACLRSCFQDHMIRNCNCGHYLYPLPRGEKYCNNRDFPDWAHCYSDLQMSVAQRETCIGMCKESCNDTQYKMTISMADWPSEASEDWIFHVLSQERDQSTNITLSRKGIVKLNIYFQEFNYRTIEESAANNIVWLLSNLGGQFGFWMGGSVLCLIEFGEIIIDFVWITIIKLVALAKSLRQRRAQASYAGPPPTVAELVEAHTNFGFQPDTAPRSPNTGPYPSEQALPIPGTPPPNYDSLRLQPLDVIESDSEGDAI
T1 sequence (P51170 1-649): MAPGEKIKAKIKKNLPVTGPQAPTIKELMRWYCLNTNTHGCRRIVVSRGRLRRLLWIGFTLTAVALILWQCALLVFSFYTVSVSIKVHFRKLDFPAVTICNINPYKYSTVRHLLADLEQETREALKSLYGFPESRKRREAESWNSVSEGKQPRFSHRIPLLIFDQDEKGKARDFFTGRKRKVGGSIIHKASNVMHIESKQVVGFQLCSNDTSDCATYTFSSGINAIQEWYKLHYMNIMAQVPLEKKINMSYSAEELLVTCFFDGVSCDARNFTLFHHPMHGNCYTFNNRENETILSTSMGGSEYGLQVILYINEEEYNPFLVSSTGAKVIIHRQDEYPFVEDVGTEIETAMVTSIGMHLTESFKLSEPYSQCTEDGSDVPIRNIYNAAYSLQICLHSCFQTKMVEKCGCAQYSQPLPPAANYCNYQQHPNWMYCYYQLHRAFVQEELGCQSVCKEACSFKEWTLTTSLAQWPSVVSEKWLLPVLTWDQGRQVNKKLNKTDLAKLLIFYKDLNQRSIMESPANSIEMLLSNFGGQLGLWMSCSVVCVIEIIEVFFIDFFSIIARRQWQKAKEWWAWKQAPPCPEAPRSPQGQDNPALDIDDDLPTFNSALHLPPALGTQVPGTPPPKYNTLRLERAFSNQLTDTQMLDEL
Description: (§1) Cloning, in vitro transcription, and heterologous expression of δ802 ENaC and two-electrode voltage clamping assay. δ802 and other ENaC subunits were generated in human ENaC cDNAs cloned into a pGEM HE vector [4], [76]. cRNAs of human α, β, and γ ENaC were prepared as described previously. The stoichiometry of native ENaC complexes is unclear to date. Based on the studies in the last decade, several models have been proposed for αβγ ENaC channels: 1α1β1γ, 2α1β1γ, 3α3β3γ. Based on the EM structure of human αβγ ENaC [35], the currently acceptable model of human αβγ ENaC complexes is heterotrimeric (1α1β1γ). Thus we microinjected δ802:β:γ in a 1:1:1 subunit ratio. Oocytes were surgically removed from appropriately anesthetized adult female Xenopus laevis (Xenopus Express). Briefly, the ovarian tissue was removed from the frog under anesthesia by tricaine-S (Western Chemicals) through a small incision in the lower abdomen. Ovarian lobes were removed and digested in OR-2 calcium-free medium (in mM: 82.5 NaCl, 2.5 KCl, 1.0 MgCl2, 1.0 Na2HPO4, and 10.0 HEPES, pH 7.5) with the addition of 2 mg/ml collagenase (Roche, Indianapolis). Defolliculated oocytes were injected with ENaC cRNAs into the cytosol (25 ng per oocyte in 50 nl of RNase-free water) and incubated in regular OR-2 medium at 18°C. The two-electrode voltage-clamp technique was used to record whole-cell currents 48 h post injection. Oocytes were impaled with two electrodes filled with 3M KCl, having resistance of 0.5 - 2 MΩ. A TEV-200A voltage-clamp amplifier (Dagan) was used to clamp oocytes with concomitant recording of currents. Two reference electrodes were connected to the bath. The continuously perfused bathing solution was ND-96 medium (in mM: 96.0 NaCl, 1.0 MgCl2, 1.8 CaCl2, 2.5 KCl, and 5.0 HEPES, pH 7.5). Whole-cell currents were recorded as previously reported. Experiments were controlled by pCLAMP 10.7 software (Molecular Devices), and currents at -40 mV, -100 mV, and +80 mV were continuously monitored with data recorded at intervals of 10 sec. Data were sampled at the rate of 200 Hz and filtered at 50 Hz.

human αβγ-ENaC = biological target: T2, human αβγ-ENaC (Homo sapiens, UniProt P37088+P51168+P51170); experiment: Two-electrode voltage clamp of αβγ-ENaC expressed in Xenopus oocytes; type: cell-based
T2 construct: expressed in transfected cells; host or cells: Xenopus laevis oocytes injected with cRNA (pGEM HE vector)
T2 sequence (P37088 1-669): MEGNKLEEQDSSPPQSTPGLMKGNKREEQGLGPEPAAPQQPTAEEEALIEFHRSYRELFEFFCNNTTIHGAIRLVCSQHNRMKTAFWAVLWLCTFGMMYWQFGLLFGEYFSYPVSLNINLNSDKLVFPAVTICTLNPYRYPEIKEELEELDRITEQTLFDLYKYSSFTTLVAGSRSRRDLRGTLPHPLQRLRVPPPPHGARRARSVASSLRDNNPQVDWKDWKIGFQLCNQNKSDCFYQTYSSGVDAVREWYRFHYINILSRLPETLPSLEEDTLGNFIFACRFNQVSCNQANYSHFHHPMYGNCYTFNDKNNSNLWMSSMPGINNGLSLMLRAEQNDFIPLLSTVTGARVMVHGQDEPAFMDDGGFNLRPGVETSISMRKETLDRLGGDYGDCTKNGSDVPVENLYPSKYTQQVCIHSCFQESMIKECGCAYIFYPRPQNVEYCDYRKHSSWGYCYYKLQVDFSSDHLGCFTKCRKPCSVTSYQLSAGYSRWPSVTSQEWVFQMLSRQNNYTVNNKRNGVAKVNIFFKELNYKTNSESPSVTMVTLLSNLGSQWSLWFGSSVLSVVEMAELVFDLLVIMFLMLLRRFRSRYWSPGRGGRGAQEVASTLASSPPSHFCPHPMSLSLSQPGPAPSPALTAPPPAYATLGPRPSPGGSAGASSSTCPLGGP
T2 sequence (P51168 1-640): T1 sequence (P51168 1-640)
T2 sequence (P51170 1-649): T1 sequence (P51170 1-649)
Description: as §1

[1] = oocytes pre-treated, currents at -100 mV, n=5, Figure 3D

## N=C(N)NC(=O)c1nc(Cl)c(N)nc1N [amiloride]
δ802αβγ-ENaC; amiloride 10 μM after α-13 300 μM, δαβγ-ENaC, -100 mV
  inhibition of the α-13 peptide-resistant remaining fraction of current amplitude: approximately 80%

## Ac-LRGTLPHPLQRLR-NH2 [α-13 peptide]
Human αβγ-ENaC; n=8, Figure 3E
  α-13 inhibitable fraction of αβγ-ENaC channels after plasmin / aprotinin pre-treatment: not significantly affected by fibrinolytic activity
Human αβγ-ENaC; oocytes, current at -100 mV, n=4, Chi^2 = 0.44, R^2 = 0.993, read-out: IC50 on αβγ-ENaC channels (Hill equation)
  IC50: 100 ± 10 nM
Human αβγ-ENaC; α-13 300 μM compared with amiloride 10 μM, -100 mV, subsequent amiloride did not reduce activity further
  inhibition of human αβγ-ENaC current: same efficacy as amiloride
δ802αβγ-ENaC; α-13 300 μM, -100 mV, n=5, Figure 2B
  fraction of total δαβγ-ENaC activity suppressed: Approximately half

B1: plasmin: serine protease of the plasmin(ogen) signal pathway for fibrinolysis (protein, UniProt P00747 20-580; P00747 581-810, looked up)
Plasmin heavy chain A: EPLDDYVNTQGASLFSVTKKQLGAGSIEECAAKCEEDEEFTCRAFQYHSKEQQCVIMAENRKSSIIIRMRDVVLFEKKVYLSECKTGNGKNYRGTMSKTKNGITCQKWSSTSPHRPRFSPATHPSEGLEENYCRNPDNDPQGPWCYTTDPEKRYDYCDILECEEECMHCSGENYDGKISKTMSGLECQAWDSQSPHAHGYIPSKFPNKNLKKNYCRNPDRELRPWCFTTDPNKRWELCDIPRCTTPPPSSGPTYQCLKGTGENYRGNVAVTVSGHTCQHWSAQTPHTHNRTPENFPCKNLDENYCRNPDGKRAPWCHTTNSQVRWEYCKIPSCDSSPVSTEQLAPTAPPELTPVVQDCYHGDGQSYRGTSSTTTTGKKCQSWSSMTPHRHQKTPENYPNAGLTMNYCRNPDADKGPWCFTTDPSVRWEYCNLKKCSGTEASVVAPPPVVLLPDVETPSEEDCMFGNGKGYRGKRATTVTGTPCQDWAAQEPHRHSIFTPETNPRAGLEKNYCRNPDGDVGGPWCYTTNPRKLYDYCDVPQCAAPSFDCGKPQVEPKKCPGR
Plasmin light chain B: VVGGCVAHPHSWPWQVSLRTRFGMHFCGGTLISPEWVLTAAHCLEKSPRPSSYKVILGAHQEVNLEPHVQEIEVSRLFLEPTRKDIALLKLSSPAVITDKVIPACLPSPNYVVADRTECFITGWGETQGTFGAGLLKEAQLPVIENKVCNRYEFLNGRVQSTELCAGHLAGGTDSCQGDSGGPLVCFEKDKYILQGVTSWGLGCARPNKPGVYVRVSRFVTWIEGVMRNN
modifications: Plasmin
notes: serine protease of the plasmin(ogen) signal pathway for fibrinolysis
Human αβγ-ENaC; [1]
  effect of pre-treatment on αβγ-ENaC activity: potentiated
δ802αβγ-ENaC; [1]
  effect of pre-treatment on δ802αβγ-ENaC activity: potentiated
